Data reported in patent US8075900B2, “Melanoma associated peptide analogues and vaccines against melanoma” (The United States of America, as represented by the …, priority 1996, dated 2011).
Values joined by “and” are separate entries in the source; they are usually repeats but may differ in a detail not shown here. Equal values may be shown once. No end group written: not given here.

Tested on: T2 target cells, Melan-A/MART-1 27-35-reactive TIL 1235 lymphocytes
Assay: Chromium-release assay, target cell sensitization for lysis by TIL 1235
Type: cell-based, human
Conditions: E:T 20:1, T2 target cells preincubated 90 min with 1 μM peptide, 5 hours

| Sequence | target cell lysis by TIL 1235 (% specific lysis) |
| --- | --- |
| AAAIGILTV [alanine-substituted Melan-A/MART-1 27-35 analogue] | 13% |
| AAGAGILTV [alanine-substituted Melan-A/MART-1 27-35 analogue] | 0% |
| AAGIAILTV [alanine-substituted Melan-A/MART-1 27-35 analogue] | 4% |
| AAGIGALTV [alanine-substituted Melan-A/MART-1 27-35 analogue] | 2% |
| AAGIGIATV [alanine-substituted Melan-A/MART-1 27-35 analogue] | 6% |
| AAGIGILAV [alanine-substituted Melan-A/MART-1 27-35 analogue] | 11% |
| AAGIGILTA [alanine-substituted Melan-A/MART-1 27-35 analogue] | 26% |
| AGGIGILTV [glycine-substituted Melan-A/MART-1 27-35 analogue] | 6% |
| AIGIGILTV [Melan-A/MART-1 27-35 N-terminal anchor-replacement analogue] | 27% |
| ALGIGILTV [Melan-A/MART-1 27-35 N-terminal anchor-replacement analogue] | 16% |
| AMGIGILTV [Melan-A/MART-1 27-35 N-terminal anchor-replacement analogue] | 6% |
| AVGIGILTV [Melan-A/MART-1 27-35 N-terminal anchor-replacement analogue] | 27% |
| GAGIGILTV [glycine-substituted Melan-A/MART-1 27-35 analogue] | 52% |
| YLEPGPVTA [reference compound] | −3% and −1% |

Target: T1, HLA-A*0201 (Homo sapiens, UniProt P04439, D140Y/D185E/D98H/E176V/E277Q/G131W/G231S/I119V/I121R/I166T/I218V/L300P/L318F/N151K/N90K/P208A/P217A/Q86G/Q94H/R138H/R169H/T345S)
T1 construct: Peptide-induced HLA-A*0201 upregulation on T2 cells was performed as described previously; endogenous in cells; host or cells: T2 cells (processing-defective, HLA-A*0201+)
Assay: Peptide-induced HLA-A*0201 upregulation/stabilization on T2 cells
Type: binding
Conditions: 25 μM peptide

| Sequence | HLA-A*0201 stabilization (Fluorescence Index) |
| --- | --- |
| AAGIGILTA [alanine-substituted Melan-A/MART-1 27-35 analogue] | 1.03 |
| AIGIGILTV [Melan-A/MART-1 27-35 N-terminal anchor-replacement analogue] | 1.29 |

Same assay, conditions: 50 μM peptide

| Sequence | HLA-A*0201 stabilization (Fluorescence Index) |
| --- | --- |
| AAGIGILTA [alanine-substituted Melan-A/MART-1 27-35 analogue] | 1.00 |
| AIGIGILTV [Melan-A/MART-1 27-35 N-terminal anchor-replacement analogue] | 1.58 |

Target: T1, HLA-A*0201
Assay: Competition based HLA-A*0201 peptide-binding assay on JY cells
Conditions: competition with Fluorescein labeled reference peptide at 4° C., mild acid treated HLA-A*0201+ B-LCL; read-out: Affinity IC50

| Sequence | IC50 |
| --- | --- |
| KIWGQYWQV | 600 nM |
| KLWGQYWQV | 400 nM |
| KTWGQYWAV | 500 nM |
| KVWGQYWQV | 800 nM |

Tested on: T2 target cells, gp100-reactive TIL 1200 lymphocytes
Assay: Chromium-release assay, target cell sensitization for lysis by TIL 1200
Type: cell-based, human
Conditions: E:T 20:1, T2 target cells preincubated 90 min with 1 μM peptide, 5 hours
Procedure: Chromium release assays were performed as described previously (Bakker et al., 1994, J. Exp. Med. 179:1005). […] Various amounts of effector cells were then added to the target cells in triplicate wells of U bottomed microliter plates (Costar, Badhoevedorp, The Netherlands) in a final volume of […]. […] After 5 h of incubation, part of the supernatant was harvested and its radioactive content was measured. The mean percentage specific lysis of triplicate wells was calculated using the formula: % specific lysis=((experimental release−spontaneous release)÷(maximal release−spontaneous release))×100.

| Sequence | target cell lysis by TIL 1200 (% specific lysis) |
| --- | --- |
| ATWGQYWQV | 75% |
| KAWGQYWQV | 64% |
| KMWGQYWQV | 57% |
| KTAGQYWQV | 58% |
| KTWAQYWQV | 63% |
| KTWGAYWQV | 9% |
| KTWGQAWQV | 7% |
| KTWGQYAQV | −2% |
| KTWGQYWQA | 76% |
| YLEPGPVTA [reference compound] | 3% |
